The target in series [1] is T1, human TRPV1 receptor (hTRPV1) (Homo sapiens, UniProt Q8NER1).
T1 construct: expressed in transfected cells
The series is described as follows: Capsaicin activation assay (Ca2+ influx, FLIPR). The class given is cell-based. To be noted: 0.05 μM capsaicin, 1321N1 cells expressing hTRPV1. The protocol:
Dulbecco's modified Eagle medium (D-MEM) (with 4.5 mg/mL glucose) and fetal bovine serum were obtained from Hyclone Laboratories, Inc. (Logan, Utah). Dulbecco's phosphate-buffered saline (D-PBS) (with 1 mg/mL glucose and 3.6 mg/l Na pyruvate, without phenol red), L-glutamine, hygromycin B, and Lipofectamine® were obtained from Life Technologies (Grand Island, N.Y.). G418 sulfate was obtained from Calbiochem-Novabiochem Corp. (San Diego, Calif.). Capsaicin (8-methyl-N-vanillyl-6-nonenamide) was obtained from Sigma-Aldrich, Co. (St. Louis, Mo.). Fluo-4 AM (N-[4-[6-[(acetyloxy)methoxy]-2,7-difluoro-3-oxo-3H-xanthen-9-yl]-2-[2-[2-[bis[2-[(acetyloxy)methoxy]-2-oxyethyl]amino]-5-methyl-phenoxy]ethoxy]phenyl]-N-[2-[(acetyloxy)methoxy]-2-oxyethyl]-glycine, (acetyloxy)methyl ester) was purchased from Molecular Probes (Eugene, Oreg.).
The cDNAs for the human TRPV1 receptor (hTRPV1) were isolated by reverse transcriptase-polymerase chain reaction (RT-PCR) from human small intestine poly A+RNA supplied by Clontech (Palo Alto, Calif.) using primers designed surrounding the initiation and termination codons identical to the published sequences (Hayes et al. Pain 2000, 88, 205-215). The resulting cDNA PCR products were subcloned into pCIneo mammalian expression vector (Promega) and fully sequenced using fluorescent dye-terminator reagents (Prism, Perkin-Elmer Applied Biosystems Division) and a Perkin-Elmer Applied Biosystems Model 373 DNA sequencer or Model 310 genetic analyzer. Expression plasmids encoding the hTRPV1 cDNA were transfected individually into 1321N1 human astrocytoma cells using Lipofectamine®. Forty-eight hours after transfection, the neomycin-resistant cells were selected with growth medium containing 800 μg/mL Geneticin (Gibco BRL). Surviving individual colonies were isolated and screened for TRPV1 receptor activity. Cells expressing recombinant homomeric TRPV1 receptors were maintained at 37° C. in D-MEM containing 4 mM L-glutamine, 300 μg/mL G418 (Cal-biochem) and 10% fetal bovine serum under a humidified 5% CO2 atmosphere.
The functional activity of compounds at the TRPV1 receptor was determined with a Ca^2+ influx assay and measurement of intracellular Ca^2+ levels ([Ca^2+]i). All compounds were tested over an 11-point half-log concentration range. Compound solutions were prepared in D-PBS (4× final concentration), and diluted serially across 96-well v-bottom tissue culture plates using a Biomek 2000 robotic automation workstation (Beckman-Coulter, Inc., Fullerton, Calif.). A 0.2 μM solution of the TRPV1 agonist capsaicin was also prepared in D-PBS. The fluorescent Ca^2+ chelating dye Fluo-4 AM was used as an indicator of the relative levels of [Ca^2+]i in a 96-well format using a Fluorescence Imaging Plate Reader (FLIPR) (Molecular Devices, Sunnyvale, Calif.). Cells were grown to confluency in 96-well black-walled tissue culture plates. Then, prior to the assay, the cells were loaded with 100 μL per well of Fluo-4 AM (2 μM, in D-PBS) for 1-2 hours at 23° C. Washing of the cells was performed to remove extracellular Fluo-4 AM (2×1 mL D-PBS per well), and afterward, the cells were placed in the reading chamber of the FLIPR instrument. 50 μL of the compound solutions were added to the cells at the 10 second time mark of the experimental run. Then, after a 3-minute time delay, 50 μL of the capsaicin solution was added at the, 190 second time mark (0.05 μM final concentration)(final volume=200 μL) to challenge the TRPV1 receptor. Time length of the experimental run was 240 seconds. Fluorescence readings were made at 1 to 5 second intervals over the course of the experimental run. The peak increase in relative fluorescence units (minus baseline) was calculated from the 190 second time mark to the end of the experimental run, and expressed as a percentage of the 0.05 μM capsaicin (control) response. […]

The nature of series [2]: Rat telemetry protocol (core body temperature). The class given is in vivo. To be noted: core body temperature of rats at one hour post dosing (100 μmol/kg, p.o.), relative to vehicle. The procedure:
Male, Sprague Dawley rats, 225-250 grams were anesthetized with Sevoflurane (Abbott Laboratories). Rats were placed on a heating pad and covered with a sterile surgical drape. A ventral midline abdominal incision was made and sterile cotton tip applicators were used to gently move internal tissue and expose the abdominal aorta for implantation of the telemetry catheter (Data Sciences International; TL11M2-050-PXT). Blood flow was temporarily stopped to the lower extremities (5-7 min) with Diffenbach clamps to allow the insertion of the telemetry catheter into the abdominal aorta. Once inserted, a sterile cellulose patch was placed over the catheter/aorta and secured using a small amount of tissue adhesive (Vetbond, 3M). Once catheter placement was complete, the clamps were removed and blood flow was restored to the lower extremities. The transmitter was placed in the intraperitoneal cavity. The transmitter suture rib was sewn into the abdominal sutures to secure it in place. The skin was closed using sterile wound clips and the animal removed from Sevoflurane. Buprenex ([…] s.c.; Phoenix) was administered for post-operative analgesia. Animals were maintained on a heating pad until ambulatory, and then individually housed with food and water ad lib. Surgical staples were removed after 7-10 days post-implantation. Rats were allowed a 2-week post-surgical recovery period before treatment with test compound. Oral dosing (p.o.) was at time zero, with rats receiving a single dose of vehicle (10% EtOH, 20% Tween-80, 70% PEG-400) or a 100 μmol/kg dose of compound dissolved in vehicle. Temperature measurements were recorded every 15 minutes for the duration of the study (24 hours).
The term “core body temperature” as used herein, means the temperature measured in the intraperitoneal cavity.

T1 sequence (Q8NER1 whole entry): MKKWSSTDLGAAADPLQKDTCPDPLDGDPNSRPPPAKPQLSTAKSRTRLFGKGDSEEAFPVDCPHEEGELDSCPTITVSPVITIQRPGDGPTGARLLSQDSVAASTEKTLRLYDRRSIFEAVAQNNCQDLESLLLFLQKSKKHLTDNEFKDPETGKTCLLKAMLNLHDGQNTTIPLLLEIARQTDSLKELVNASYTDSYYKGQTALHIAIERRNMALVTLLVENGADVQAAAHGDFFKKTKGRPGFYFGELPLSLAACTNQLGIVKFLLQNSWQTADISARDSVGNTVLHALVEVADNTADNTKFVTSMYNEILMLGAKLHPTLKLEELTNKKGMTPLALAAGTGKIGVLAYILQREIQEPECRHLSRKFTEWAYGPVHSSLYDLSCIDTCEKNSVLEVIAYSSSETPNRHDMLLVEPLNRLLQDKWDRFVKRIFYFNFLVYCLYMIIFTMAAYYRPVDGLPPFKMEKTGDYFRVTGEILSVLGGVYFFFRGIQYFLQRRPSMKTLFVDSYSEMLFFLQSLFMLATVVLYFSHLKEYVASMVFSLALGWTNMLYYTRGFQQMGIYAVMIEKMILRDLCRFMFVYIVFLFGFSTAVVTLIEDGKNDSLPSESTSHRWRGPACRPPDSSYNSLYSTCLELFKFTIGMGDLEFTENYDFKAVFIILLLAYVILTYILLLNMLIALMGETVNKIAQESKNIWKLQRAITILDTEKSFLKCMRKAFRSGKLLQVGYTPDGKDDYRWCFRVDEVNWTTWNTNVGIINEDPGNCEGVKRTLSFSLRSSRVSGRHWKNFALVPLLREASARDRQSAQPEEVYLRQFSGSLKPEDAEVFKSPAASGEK

On to `CC1(C)C[C@@H](NC(=O)Nc2cccc3c2C[C@H](O)CC3)c2cc(F)cc(F)c2O1` [Example 18, N-[(4R)-6,8-difluoro-2,2-dimethyl-3,4-dihydro-2H-chromen-4-yl]-N′-[(7R)-7-hydroxy-5,6,7,8-tetrahydronaphthalen-1-yl]urea], for which, in series [1], the IC50 came out at 29 nM. Moreover, the “Δ Temp” value in series [2] worked out at 1.4 °C.

Compound `O=C(Nc1cccc2c1C[C@H](O)CC2)N[C@@H]1CC(CF)(CF)Oc2cc(F)ccc21` [Example 89, N-[(4R)-7-fluoro-2,2-bis(fluoromethyl)-3,4-dihydro-2H-chromen-4-yl]-N′-[(7R)-7-hydroxy-5,6,7,8-tetrahydronaphthalen-1-yl]urea] showed an IC50 in series [1] of 29 nM. Further, in series [2], the “Δ Temp” value was 1.3 °C.

Regarding `CC1(C)C[C@@H](NC(=O)Nc2cccc3[nH]ncc23)c2ccc(F)cc2O1` [Example 29, N-[(4R)-7-fluoro-2,2-dimethyl-3,4-dihydro-2H-chromen-4-yl]-N′-1H-indazol-4-ylurea], in series [1], the IC50 turned out to be 13 nM. Also, in series [2], the “Δ Temp” value is 1.2 °C.

As for `CCC1(CC)C[C@@H](NC(=O)Nc2cccc3c2cnn3C)c2ccc(F)cc2O1` [Example 46, N-[(4R)-2,2-diethyl-7-fluoro-3,4-dihydro-2H-chromen-4-yl]-N′-(1-methyl-1H-indazol-4-yl)urea], the IC50 in series [1] was found to be 17 nM. For the same compound, in series [2], the “Δ Temp” value was determined as 0.7 °C.

For the compound `CC1(C)C[C@@H](NC(=O)Nc2cccc3[nH]ncc23)c2cccc(C(F)(F)F)c2O1` [Example 45, N-[(4R)-2,2-dimethyl-8-(trifluoromethyl)-3,4-dihydro-2H-chromen-4-yl]-N′-1H-indazol-4-ylurea], the 50% inhibitory concentration (IC50) in series [1] worked out at 11 nM. Further, the “Δ Temp” value in series [2] is 0.5 °C.

For `CC1(C)C[C@@H](NC(=O)Nc2cccc3c2C[C@@H](O)CC3)c2ccc(OC(F)(F)F)cc2O1` [Example 116, N-[(4R)-2,2-dimethyl-7-(trifluoromethoxy)-3,4-dihydro-2H-chromen-4-yl]-N′-[(7S)-7-hydroxy-5,6,7,8-tetrahydronaphthalen-1-yl]urea], inhibition in series [1] was half-maximal at 13 nM (IC50). Besides, the “Δ Temp” value in series [2] amounted to 1.1 °C.

In the case of “N-[(4R)-8-tert-butyl-3,4-dihydro-2H-chromen-4-yl]-N-(3-methylisoquinolin-5-yl)urea, hydrochloride salt [Example 100]”, half-maximal inhibition in series [1] (IC50) was put at 7 nM. The “Δ Temp” value in series [2] stood at 1.7 °C.

`Cc1cc2c(NC(=O)N[C@@H]3CC(C)(C)Oc4c3ccc(C(F)(F)F)c4F)cccc2cn1` [Example 99, N-[(4R)-8-fluoro-2,2-dimethyl-7-(trifluoromethyl)-3,4-dihydro-2H-chromen-4-yl]-N′-(3-methylisoquinolin-5-yl)urea] had an IC50 in series [1] of 7 nM. Also, in series [2], the “Δ Temp” value amounted to 0.8 °C.

In the case of `CCC1(CC)C[C@@H](NC(=O)Nc2cccc3c2cnn3C)c2ccc(C(F)(F)F)cc2O1` [Example 49, N-[(4R)-2,2-diethyl-7-(trifluoromethyl)-3,4-dihydro-2H-chromen-4-yl]-N′-(1-methyl-1H-indazol-4-yl)urea], 71 nM corresponded to half-maximal inhibition in series [1] (IC50). For the same compound, the “Δ Temp” value in series [2] was determined as 1.3 °C.

In series [1], `CC1(C)C[C@@H](NC(=O)Nc2cccc3cnccc23)c2ccc(OC(F)(F)F)cc2O1` [Example 40, N-[(4R)-2,2-dimethyl-7-(trifluoromethoxy)-3,4-dihydro-2H-chromen-4-yl]-N′-isoquinolin-5-ylurea] came in with an IC50 of 5 nM. Further, the “Δ Temp” value in series [2] is 0.8 °C.

`CCC1(CC)C[C@@H](NC(=O)Nc2cccc3c2C[C@H](O)CC3)c2cc(F)ccc2O1` [Example 54, N-[(4R)-2,2-diethyl-6-fluoro-3,4-dihydro-2H-chromen-4-yl]-N′-[(7R)-7-hydroxy-5,6,7,8-tetrahydronaphthalen-1-yl]urea]: in series [1], it took 38 nM to reach half-maximal inhibition (IC50). Besides, in series [2], the “Δ Temp” value amounted to 1.0 °C.

In turn, `CCC1(CC)C[C@@H](NC(=O)Nc2cccc3c2C[C@@H](O)CC3)c2ccc(F)cc2O1` [Example 71, N-[(4R)-2,2-diethyl-7-fluoro-3,4-dihydro-2H-chromen-4-yl]-N′-[(7S)-7-hydroxy-5,6,7,8-tetrahydronaphthalen-1-yl]urea] gave a half-inhibitory concentration (IC50) in series [1] of 9 nM. For the same compound, in series [2], the “Δ Temp” value was 0.5 °C.

For `CC1(C)C[C@@H](NC(=O)Nc2cccc3c2C[C@@H](O)CC3)c2ccc(F)c(F)c2O1` [Example 114, N-[(4R)-7,8-difluoro-2,2-dimethyl-3,4-dihydro-2H-chromen-4-yl]-N′-[(7S)-7-hydroxy-5,6,7,8-tetrahydronaphthalen-1-yl]urea], the IC50 in series [1] worked out at 15 nM. Also, the “Δ Temp” value in series [2] was found to be 0.6 °C.

Compound `O=C(Nc1cccc2c1C[C@@H](O)CC2)N[C@@H]1CC2(CCC2)Oc2ccc(F)cc21` [Example 9, N-[(4R)-6-fluoro-3,3′,4,4′-tetrahydro-2′H-spiro[chromene-2,1′-cyclobutan]-4-yl]-N′-[(7S)-7-hydroxy-5,6,7,8-tetrahydronaphthalen-1-yl]urea] gave an IC50 in series [1] of 28 nM. The “Δ Temp” value in series [2] worked out at 0.9 °C.

Take `O=C(Nc1cccc2c1C[C@@H](O)CC2)N[C@@H]1CC(CF)(CF)Oc2c(F)cccc21` [Example 107, N-[(4R)-8-fluoro-2,2-bis(fluoromethyl)-3,4-dihydro-2H-chromen-4-yl]-N′-[(7S)-7-hydroxy-5,6,7,8-tetrahydronaphthalen-1-yl]urea]: 53 nM corresponded to half-maximal inhibition in series [1] (IC50). Further, the “Δ Temp” value in series [2] is 0.9 °C.

`O=C(Nc1cccc2c1C[C@@H](O)CC2)N[C@@H]1CC(CF)(CF)Oc2cc(Cl)ccc21` [Example 104, N-[(4R)-7-chloro-2,2-bis(fluoromethyl)-3,4-dihydro-2H-chromen-4-yl]-N′-[(7S)-7-hydroxy-5,6,7,8-tetrahydronaphthalen-1-yl]urea] displayed an IC50 in series [1] of 25 nM. Also, the “Δ Temp” value in series [2] was 1.1 °C.

In series [1], `CCC1(CC)C[C@@H](NC(=O)Nc2cccc3c2C[C@@H](O)CC3)c2ccc(Cl)cc2O1` [Example 76, N-[(4R)-7-chloro-2,2-diethyl-3,4-dihydro-2H-chromen-4-yl]-N′-[(7S)-7-hydroxy-5,6,7,8-tetrahydronaphthalen-1-yl]urea] came in with an IC50 of 9 nM. Also, the “Δ Temp” value in series [2] stood at 1.3 °C.

On to `CCC1(CC)C[C@@H](NC(=O)Nc2cccc3c2C[C@H](O)CC3)c2ccc(F)cc2O1` [Example 74, N-[(4R)-2,2-diethyl-7-fluoro-3,4-dihydro-2H-chromen-4-yl]-N′-[(7R)-7-hydroxy-5,6,7,8-tetrahydronaphthalen-1-yl]urea], for which the IC50 in series [1] stood at 13 nM. Further, in series [2], the “Δ Temp” value turned out to be 0.9 °C.

The values above are taken from patent US8609692B2, “TRPV1 antagonists” (AbbVie Inc., priority 2008, dated 2013).
